Patent US6737383B1, “Herbicidal oxadiazolidines” (priority 1999, dated 2004)

Experiments:
[1] = tested on: rice; test: Test B flood test rice; format: in vivo, Oryza sativa
How it was run: (§1)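 Flood test on plants grown to the 2-leaf stage; treated plants kept in greenhouse twelve to sixteen days, then visually rated against controls on a 0 (no effect) to 10 (complete control) scale.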

[2] = tested on: corn; test: Test B pre/postemergence corn; format: in vivo, Zea mays
How it was run: (§2)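 Herbicidal effect was estimated by eye on a ten-point control scale after plants spent twelve to sixteen days in a greenhouse following soil or foliar treatment. Foliar sprays targeted plants at one to four leaves; all doses were formulated in a non-phytotoxic solvent with surfactant.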

[3] = tested on: bamyardgrass; test: Test B flood test barnyardgrass; format: in vivo, Echinochloa crus-galli
How it was run: as §1

[4] = tested on: purple nutsedge; test: Test B pre/postemergence purple nutsedge; format: in vivo, Cyperus rotundus
How it was run: as §2

[5] = tested on: giant foxtail; test: Test B pre/postemergence giant foxtail; format: in vivo, Setaria faberii
How it was run: as §2

[6] = tested on: pigweed; test: Test B pre/postemergence pigweed; format: in vivo, Amaranthus retroflexus
How it was run: as §2

[7] = tested on: wild oat; test: Test B pre/postemergence wild oat; format: in vivo, Avena fatua
How it was run: as §2

[8] = tested on: sugar beet; test: Test B pre/postemergence sugar beet; format: in vivo, Beta vulgaris
How it was run: as §2

[9] = tested on: wheat; test: Test B pre/postemergence wheat; format: in vivo, Triticum aestivum
How it was run: as §2

[10] = tested on: rape; test: Test B pre/postemergence rape; format: in vivo, Brassica napus
How it was run: as §2

[11] = tested on: cocklebur; test: Test B pre/postemergence cocklebur; format: in vivo, Xanthium strumarium
How it was run: as §2

[12] = tested on: duck salad; test: Test B flood test duck salad; format: in vivo, Heteranthera limosa
How it was run: as §1

[13] = tested on: surinam grass; test: Test B pre/postemergence surinam grass; format: in vivo, Brachiaria decumbens
How it was run: as §2

[14] = tested on: crabgrass; test: Test B pre/postemergence crabgrass; format: in vivo, Digitaria sanguinalis
How it was run: as §2

[15] = tested on: smallflower flatsedge; test: Test B flood test smallflower flatsedge; format: in vivo, Cyperus difformis
How it was run: as §1

[16] = tested on: morningglory; test: Test B pre/postemergence morningglory; format: in vivo, Ipomoea hederacea
How it was run: as §2

[17] = Rate 62 g/ha, flood test species, Pre-emergence, visual evaluation after twelve to sixteen days
[18] = Rate 125 g/ha, under heading Pre-emergence, flood test species, visual evaluation after twelve to sixteen days
[19] = Rate 250 g/ha, Pre-emergence (flood test species), scale 0 to 10, 0 is no effect, 10 is complete control
[20] = Rate 500 g/ha, Pre-emergence section of Table B, 0 to 10 scale (0 no effect, 10 complete control)
[21] = Postemergence, Rate 62 g/ha, scale 0 to 10, 0 is no effect, 10 is complete control
[22] = Postemergence, Rate 125 g/ha, scale of 0 to 10 where 0 is no effect and 10 is complete control
[23] = Postemergence, Rate 250 g/ha, scale of 0 to 10, 0 is no effect, 10 is complete control
[24] = Preemergence, Rate 62 g/ha, scale of 0 to 10 where 0 is no effect and 10 is complete control
[25] = Preemergence, Rate 250 g/ha, scale 0 to 10 (0 no effect, 10 complete control)
[26] = Preemergence, Rate 500 g/ha, scale of 0 to 10 where 0 is no effect and 10 is complete control
[27] = Rate 500 g/ha, Postemergence, scale 0 to 10, 0 is no effect, 10 is complete control
[28] = Preemergence, Rate 125 g/ha, scale of 0 to 10 where 0 is no effect and 10 is complete control

Structure (SMILES): CC(C)N(C(=O)n1oc(=O)n(CCF)c1=O)c1ccc(Cl)cc1 [Compound 668]
- Plant response rating, Rice (0 to 10 scale, 0 is no effect, 10 is complete control) [1, 17]: 0
- Rice plant response rating (0 to 10 scale, 0 is no effect, 10 is complete control) [1, 18]: 0
- Rice plant response rating [1, 19]: 0
- Rice plant response rating [1, 20]: 0
- Plant response rating, Corn [2, 21]: 0
- Corn plant response rating [2, 22]: 0
- Corn plant response rating [2, 23]: 3
- Corn plant response rating [2, 24]: 0
- Plant response rating, Corn [2, 25]: 4
- Plant response rating, Corn [2, 26]: 9
- Corn plant response rating [2, 27]: 3
- Plant response rating, Barnyardgrass (0 to 10 scale, 0 is no effect, 10 is complete control) [3, 17]: 0
- Barnyardgrass plant response rating (0 to 10 scale, 0 is no effect, 10 is complete control) [3, 18]: 0
- Barnyardgrass plant response rating [3, 19]: 0
- Barnyardgrass plant response rating [3, 20]: 0
- Plant response rating, Nutsedge [4, 21]: 0
- Nutsedge plant response rating [4, 22]: 0
- Nutsedge plant response rating [4, 24]: 0
- Nutsedge plant response rating [4, 28]: 0
- Plant response rating, Nutsedge [4, 25]: 0
- Plant response rating, Nutsedge [4, 26]: 0
- Nutsedge plant response rating [4, 27]: 0
- Plant response rating, Giant foxtail [5, 21]: 8
- Giant foxtail plant response rating [5, 22]: 9
- Giant foxtail plant response rating [5, 23]: 9
- Giant foxtail plant response rating [5, 24]: 9
- Giant foxtail plant response rating [5, 28]: 9
- Plant response rating, Giant foxtail [5, 25]: 9
- Plant response rating, Giant foxtail [5, 26]: 10
- Giant foxtail plant response rating [5, 27]: 9
- Plant response rating, Redroot pigweed [6, 21]: 3
- Redroot pigweed plant response rating [6, 22]: 5
- Redroot pigweed plant response rating [6, 24]: 0
- Redroot pigweed plant response rating [6, 28]: 7
- Plant response rating, Redroot pigweed [6, 25]: 10
- Plant response rating, Redroot pigweed [6, 26]: 10
- Redroot pigweed plant response rating [6, 27]: 7
- Plant response rating, Wild oats [7, 21]: 0
- Wild oats plant response rating [7, 22]: 0
- Wild oats plant response rating [7, 24]: 2
- Wild oats plant response rating [7, 28]: 7
- Plant response rating, Wild oats [7, 25]: 8
- Plant response rating, Wild oats [7, 26]: 9
- Wild oats plant response rating [7, 27]: 0
- Plant response rating, Sugarbeets [8, 21]: 0
- Sugarbeets plant response rating [8, 22]: 0
- Sugarbeets plant response rating [8, 24]: 0
- Sugarbeets plant response rating [8, 28]: 6
- Plant response rating, Sugarbeets [8, 25]: 6
- Plant response rating, Sugarbeets [8, 26]: 9
- Sugarbeets plant response rating [8, 27]: 6
- Plant response rating, Wheat [9, 21]: 0
- Wheat plant response rating [9, 22]: 0
- Wheat plant response rating [9, 24]: 0
- Wheat plant response rating [9, 28]: 0
- Plant response rating, Wheat [9, 25]: 5
- Plant response rating, Wheat [9, 26]: 7
- Wheat plant response rating [9, 27]: 0
- Plant response rating, Rape [10, 21]: 2
- Rape plant response rating [10, 22]: 3
- Rape plant response rating [10, 24]: 0
- Rape plant response rating [10, 28]: 5
- Plant response rating, Rape [10, 25]: 8
- Plant response rating, Rape [10, 26]: 9
- Rape plant response rating [10, 27]: 4
- Plant response rating, Cocklebur [11, 21]: 0
- Cocklebur plant response rating [11, 22]: 0
- Cocklebur plant response rating [11, 23]: 2
- Cocklebur plant response rating [11, 24]: 0
- Cocklebur plant response rating [11, 28]: 0
- Plant response rating, Cocklebur [11, 25]: 0
- Plant response rating, Cocklebur [11, 26]: 0
- Cocklebur plant response rating [11, 27]: 2
- Plant response rating, Ducksalad (0 to 10 scale, 0 is no effect, 10 is complete control) [12, 17]: 0
- Ducksalad plant response rating (0 to 10 scale, 0 is no effect, 10 is complete control) [12, 18]: 0
- Ducksalad plant response rating [12, 19]: 0
- Ducksalad plant response rating [12, 20]: 0
- Plant response rating, B. signalgrass [13, 21]: 1
- Plant response rating, B. signalgrass [13, 22]: 2
- B. signalgrass plant response rating [13, 23]: 4
- B. signalgrass plant response rating [13, 24]: 5
- B. signalgrass plant response rating [13, 28]: 8
- Plant response rating, B. signalgrass [13, 25]: 8
- Plant response rating, B. signalgrass [13, 26]: 9
- B. signalgrass plant response rating [13, 27]: 5
- Plant response rating, Crabgrass [14, 21]: 6
- Crabgrass plant response rating [14, 22]: 9
- Crabgrass plant response rating [14, 23]: 9
- Crabgrass plant response rating [14, 24]: 8
- Crabgrass plant response rating [14, 28]: 8
- Plant response rating, Crabgrass [14, 25]: 8
- Plant response rating, Crabgrass [14, 26]: 8
- Crabgrass plant response rating [14, 27]: 10
- Plant response rating, S. Flatsedge (0 to 10 scale, 0 is no effect, 10 is complete control) [15, 17]: 0
- S. Flatsedge plant response rating (0 to 10 scale, 0 is no effect, 10 is complete control) [15, 18]: 0
- S. Flatsedge plant response rating [15, 19]: 0
- S. Flatsedge plant response rating [15, 20]: 0
- Plant response rating, Morningglory [16, 21]: 1
- Morningglory plant response rating [16, 22]: 3
- Morningglory plant response rating [16, 23]: 4
- Morningglory plant response rating [16, 24]: 0
- Morningglory plant response rating [16, 28]: 0
- Plant response rating, Morningglory [16, 25]: 0
- Plant response rating, Morningglory [16, 26]: 5
- Morningglory plant response rating [16, 27]: 4
